Assay results published in US20200399262A1, “COMPOUNDS FOR INHIBITING PROTEIN DEGRADATION AND METHODS OF USE THEREOF IN THE TREATMENT OF CANCER” (PI Therapeutics Ltd, priority 2018, published 2020).
pEC50: −log10 of the molar value.

Columns and labels:
Type in all cases: cell-based
[1] = tested on: ACHN; experiment: Cell viability panel, ATPlite 1Step; settings: Homo sapiens, Papillary renal cell carcinoma, 72 h exposure, read-out: Compound EC50
Outline: (§1)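 ATPlite: optimal density 200-6400 cells/well, ATCC medium, 8 conc 0.04-32 μM, 72 h. CyQUANT: 24 h pre-seed, 5,000-40,000 cells/well, RPMI 1640 + 10% FBS + 2 mM Gln, 0.04-1 μM, 48 h 37° C., EC50 from [(Ti−Tz)/(C−Tz)]×100.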

[2] = tested on: 5637; experiment: Cell viability panel, ATPlite 1Step; settings: Bladder carcinoma, 72 h exposure, read-out: Compound EC50
Outline: as §1

[3] = tested on: RT4; experiment: Cell viability panel, ATPlite 1Step; settings: Homo sapiens, RT-4, Bladder carcinoma, 72 h exposure, read-out: Compound EC50
Outline: as §1

[4] = tested on: HT; experiment: Cell viability panel, ATPlite 1Step; settings: Homo sapiens, Diffuse large B-cell lymphoma, 72 h exposure, read-out: Compound EC50
Outline: as §1

[5] = tested on: COLO 829; experiment: Cell viability panel, ATPlite 1Step; settings: Homo sapiens, Cutaneous melanoma, 72 h exposure, read-out: Compound EC50
Outline: as §1

[6] = tested on: Daoy; experiment: Cell viability panel, ATPlite 1Step; settings: Homo sapiens, Medulloblastoma, 72 h exposure, read-out: Compound EC50
Outline: as §1

[7] = tested on: LNCaP FGC; experiment: Cell viability panel, ATPlite 1Step; settings: Homo sapiens, Prostate carcinoma, 72 h exposure, read-out: Compound EC50
Outline: as §1

[8] = tested on: SW480; experiment: Cell viability panel, ATPlite 1Step; settings: Homo sapiens, Colon adenocarcinoma, 72 h exposure, read-out: Compound EC50
Outline: as §1

[9] = tested on: Hs 746T; experiment: Cell viability panel, ATPlite 1Step; settings: Homo sapiens, Hs746T, Gastric adenocarcinoma, 72 h exposure, read-out: Compound EC50
Outline: as §1

[10] = tested on: HL-60; experiment: Cell viability panel, ATPlite 1Step; settings: Homo sapiens, Acute myeloid leukemia, 72 h exposure, read-out: Compound EC50
Outline: as §1

[11] = tested on: CCF-STTG1; experiment: Cell viability panel, ATPlite 1Step; settings: Homo sapiens, Astrocytoma, 72 h exposure, read-out: Compound EC50
Outline: as §1

[12] = tested on: BT-20; experiment: Cell viability panel, ATPlite 1Step; settings: Homo sapiens, Invasive ductal carcinoma, 72 h exposure, read-out: Compound EC50
Outline: as §1

[13] = tested on: AU-565; experiment: Cell viability panel, ATPlite 1Step; settings: Homo sapiens, AU565, Breast adenocarcinoma, 72 h exposure, read-out: Compound EC50
Outline: as §1

[14] = tested on: RKO; experiment: Cell viability panel, ATPlite 1Step; settings: Homo sapiens, Colon carcinoma, 72 h exposure, read-out: Compound EC50
Outline: as §1

[15] = tested on: A-204; experiment: Cell viability panel, ATPlite 1Step; settings: Homo sapiens, A204, Embryonal rhabdomyosarcoma, 72 h exposure, read-out: Compound EC50
Outline: as §1

[16] = tested on: DU4475; experiment: Cell viability panel, ATPlite 1Step; settings: Homo sapiens, DU-4475, Breast carcinoma, 72 h exposure, read-out: Compound EC50
Outline: as §1

[17] = tested on: HT-1080; experiment: Cell viability panel, ATPlite 1Step; settings: Homo sapiens, Fibrosarcoma, 72 h exposure, read-out: Compound EC50
Outline: as §1

[18] = tested on: AN3 CA; experiment: Cell viability panel, ATPlite 1Step; settings: Homo sapiens, Endometrial adenocarcinoma, 72 h exposure, read-out: Compound EC50
Outline: as §1

[19] = tested on: BxPC-3; experiment: Cell viability panel, ATPlite 1Step; settings: Homo sapiens, Pancreatic ductal adenocarcinoma, 72 h exposure, read-out: Compound EC50
Outline: as §1

[20] = tested on: ES-2; experiment: Cell viability panel, ATPlite 1Step; settings: Homo sapiens, Ovarian clear cell adenocarcinoma, 72 h exposure, read-out: Compound EC50
Outline: as §1

[21] = tested on: MCF7; experiment: Cell viability panel, ATPlite 1Step; settings: Homo sapiens, Invasive ductal carcinoma, 72 h exposure, read-out: Compound EC50
Outline: as §1

[22] = tested on: BT-549; experiment: Cell viability panel, ATPlite 1Step; settings: Homo sapiens, Invasive ductal carcinoma, 72 h exposure, read-out: Compound EC50
Outline: as §1

[23] = tested on: LS411N; experiment: Cell viability panel, ATPlite 1Step; settings: Homo sapiens, LS-411N, Cecum adenocarcinoma, 72 h exposure, read-out: Compound EC50
Outline: as §1

[24] = tested on: SNU-5; experiment: Cell viability panel, ATPlite 1Step; settings: Homo sapiens, Gastric carcinoma, 72 h exposure, read-out: Compound EC50
Outline: as §1

[25] = tested on: VA-ES-BJ; experiment: Cell viability panel, ATPlite 1Step; settings: Epithelioid sarcoma, 72 h exposure, read-out: Compound EC50
Outline: as §1

[26] = tested on: RL95-2; experiment: Cell viability panel, ATPlite 1Step; settings: Homo sapiens, Endometrial adenosquamous carcinoma, 72 h exposure, read-out: Compound EC50
Outline: as §1

[27] = tested on: DB; experiment: Cell viability panel, ATPlite 1Step; settings: Homo sapiens, Diffuse large B-cell lymphoma, 72 h exposure, read-out: Compound EC50
Outline: as §1

[28] = tested on: A388; experiment: Cell viability panel, ATPlite 1Step; settings: Squamous cell carcinoma, 72 h exposure, read-out: Compound EC50
Outline: as §1

[29] = tested on: PC-3; experiment: Cell viability panel, ATPlite 1Step; settings: Homo sapiens, Prostate carcinoma, 72 h exposure, read-out: Compound EC50
Outline: as §1

[30] = tested on: TK-10; experiment: NCI60 screen cytotoxicity; settings: Homo sapiens, Renal cancer, read-out: Compound B1 EC50

CN(C)CCCS(=O)(=O)N1C/C(=C\c2ccc(C#N)cc2)C(=O)/C(=C/c2ccc(C#N)cc2)C1 [Compound AA]
pEC50 [1]: 6.00 to 6.52
pEC50 [2]: > 6.52
pEC50 [3]: 6.00 to 6.52
pEC50 [4]: > 6.52
pEC50 [5]: > 6.52
pEC50 [6]: > 6.52
pEC50 [7]: 6.00 to 6.52
pEC50 [8]: > 6.52
pEC50 [9]: > 6.52
pEC50 [10]: > 6.52
pEC50 [11]: > 6.52
pEC50 [12]: ≤ 6.00
pEC50 [13]: > 6.52
pEC50 [14]: > 6.52
pEC50 [15]: > 6.52
pEC50 [16]: 6.00 to 6.52
pEC50 [17]: > 6.52
pEC50 [18]: > 6.52
pEC50 [19]: > 6.52
pEC50 [20]: > 6.52
pEC50 [21]: ≤ 6.00
pEC50 [22]: > 6.52
pEC50 [23]: 6.00 to 6.52
pEC50 [24]: 6.00 to 6.52
pEC50 [25]: > 6.52
pEC50 [26]: > 6.52
pEC50 [27]: > 6.52
pEC50 [28]: > 6.52
pEC50 [29]: 6.00 to 6.52

CN(C)CC(=O)NCC(=O)N1C/C(=C\c2ccc(C#N)cc2)C(=O)/C(=C/c2ccc(C#N)cc2)C1 [Compound B1]
pEC50 [30]: 6.00 to 6.52
